Test results as given in patent US20050171084A1, “Methods of treatment with lxr modulators” (priority 2002, published 2005).

Test system: NTW8 mouse microglial cells
Assay: Secretion of pro-inflammatory mediators from LPS/IFN-γ stimulated microglia
Format: cell-based
Details: LPS/INF-γ stimulated microglia cells, 24 hrs
Procedure: NTW8 mouse microglial cells were plated into a 96 well plate at a density of 2×10^5 cells/well in DMEM supplemented with 10% FCS, 2 mM glutamine, 10 ng/ml basic fibroblast growth factor (R&D Systems) and N-2 (Gibco). Next day, cell were stimulated for 24 hrs in DMEM containing 10 ng/ml LPS (Sigma) and 20 U/ml IFN-γ (Gibco) in the presence of increasing concentrations of the test compound solubilised in DMSO. Media was removed after 24 hrs and analysed by ELISA for secreted IL-6, TNF-α (R&D systems) and PGE2 (Amersham) or via a Greiss assay for nitric oxide (NO) production. Cell viability was assessed by an MTT assay (Promega). All data are means and SEM pooled from two independent experiments. Results are expressed as a percentage of the LPS\INF-γ stimulated control cells treated with DMSO alone.

O=C(O)Cc1cccc(OCCCN(Cc2cccc(C(F)(F)F)c2Cl)CC(c2ccccc2)c2ccccc2)c1 [Example 1, 2-(3-{3-[[2-Chloro-3-(trifluoromethyl)benzyl](2,2-diphenylethyl)amino]propoxy}-phenyl)acetic Acid]
inhibited: secretion of IL-6 (ELISA (FIG. 2)) | secretion of PGE2 (ELISA (FIG. 2)) | secretion of TNF-α (ELISA (FIG. 2)) | NO production (Greiss assay (FIG. 2))
